For series [1] the following is noted: pediatric TBI patients; 50 mg/kg IV then 8.3 mg/kg/hour for 24 hours; cited from earlier work.
The conditions of series [2]: cited from earlier work.
For series [3] the following is noted: end of 24 hour infusion, cited from earlier work.
For series [4] the following is noted: at the end of three months; 4 g IV and 10 g IM within 12 hours of injury, then 5 g IM every 4 hours for 24 hours; cited from earlier work.
The conditions of series [5]: magnesium therapy; cited from earlier work.
For series [6] the following is noted: cited from earlier work. This is another data set of the same source.
The conditions of series [7]: after one month of follow up; loading dose 16 mM then 6 mM/hour for 5 days IV; cited from earlier work.
For series [8] the following is noted: cited from earlier work. The source holds these as a separate data set.
For series [9] the following is noted: 283 patients with aneurysmal subarachnoid hemorrhage; cited from earlier work.
The nature of series [10]: Clinical study in patients with infarct: Glasgow outcome scale, Barthel Index, Modified Rankin Score. The class given is in vivo, human.
For series [11] the following is noted: cited from earlier work. This is another data set of the same source.
For series [12] the following is noted: cited from earlier work. The source holds these as a separate data set.
Series [13] is described as follows: Evaluation of therapy for side effects of magnesium sulfate with and without mannitol treatment. The method, then:
Safety—safety of subjects was maintained at all times. Adverse events and clinical laboratory data were obtained. Serious and non-serious adverse effects and clinical laboratory data were compared between groups.
Group 1. Magnesium sulfate 16 gm a day (4 vials each of 1 gm of magnesium sulfate mixed with 100 ml normal saline was infused 6 hourly for five days)
Group 3. Magnesium sulfate 8 gm a day plus mannitol (2 vials each of 1 gm of magnesium sulfate mixed with 50 ml normal saline was infused 6 hourly for five days; in addition 100 ml of 20% mannitol once a day with first dose of magnesium sulfate was administered)
Evaluation of therapy for side effects of magnesium sulfate with and without mannitol treatment

For series [14] the following is noted: 16 mmol bolus and 65 mmol continuous infusion over 24 hrs; cited from earlier work.
For series [15] the following is noted: cited from earlier work. The source holds these as a separate data set.
Where [16] appears, read: number out of total 15 patients, magnesium sulfate 16 gm a day, five days.

The structures appear in SMILES notation. “Also recorded” adds a separate entry of the source. Where two headings read alike, the source gives them in different places.

Regarding `[Mg]` [magnesium], the Adverse hemodynamic effects result in [1] is recorded as “No adverse hemodynamic effects were observed”. In addition, the “Composite primary outcome at 6 months post-injury” value in [2] (administration within 8 hours of moderate to severe TBI for 5 days, continuous infusion) was “did not show any beneficial effects”. In addition, the Mortality result in series [2] (high dose of magnesium) is recorded as “Significantly higher mortality”. Moreover, in [2] (lower dose of magnesium), the “Composite score versus placebo” value is reported as “worse than the placebo treated patients”. Also, in series [3], the “CSF ionized magnesium increase relative to baseline” value was 11% and the “CSF total magnesium increase relative to baseline” value is given as 15%. Moreover, in [3] (dose adjusted to serum 2.1-2.5 mM/L), the “Serum magnesium concentrations relative to baseline” value is “doubled from baseline”. Also, the “Patients with favorable outcome including reduced mortality and intra-operative brain swelling” value in [4] was 73%. Further, the “Outcome at six months” value in series [5] is “failed to provide a favorable outcome”. Besides, the Serum magnesium level in series [6] (over 24 hours, 8 mmol over 15 minutes followed by 65 mmol over 24 hours IV, rose from 0.76 mM/L) is given as 1.42 mM/L. In addition, the “Blood pressure or adverse events versus placebo-treated patients” value in [6] (stroke patients) was “No differences”. Moreover, in series [7], the “Patient outcome, outcome scales (Orgogozo, Mathew, Rankin)” value was “significant positive effect”. Moreover, the “Target serum concentrations achieved” value in series [8] (16 mmol loading infusion) is listed as 1.49 mmol/L. The “Effects on heart rate, blood pressure, or blood glucose” value in [8] (loading dose 8, 12 or 16 mM followed by 65 mM infusion over 24 hours) is “no obvious effects”. Moreover, the “Delayed cerebral ischemia and subsequent poor outcome” value in [9] was “reduced”.

Turning to `OC[C@@H](O)[C@@H](O)[C@H](O)[C@H](O)CO` [mannitol, D-mannitol], the “Effectiveness of mannitol compared to control” value in series [10] (100 ml 20% mannitol once a day for five days) is listed as “not effective compared to control”. The “Glasgow outcome scale (GOS), Barthel Index (BI) and Modified Rankin Score (MRS), mannitol group versus control group” value in series [10] (100 ml 20% mannitol once a day for five days, day 1, day 5, day 15, day 30) was “similar”. Further, in series [10] (day 5, day 15, day 30), the “Barthel Index (BI) and Modified Rankin Score (MRS), mannitol group compared to magnesium sulfate (8 gm) plus mannitol group” value is “significantly higher”; the “Barthel Index (BI) and Modified Rankin Score (MRS), mannitol group compared to magnesium sulfate (16 gm) group” value is “significantly higher”; the “Glasgow outcome scale (GOS), mannitol group compared to magnesium sulfate (8 gm) plus mannitol group” value is recorded as “significantly lower”; the “Glasgow outcome scale (GOS), mannitol group compared to magnesium sulfate (16 gm) group” value is “significantly lower”. The Half life in series [11] (humans with normal renal function) is 1.2 h. For the same compound, in series [11] (humans), the “Osmolal gap corresponding to renal toxicity” value was > 55 mosm/kg of water and the “Serum mannitol concentration at which renal toxicity / acute renal failure occurs” value is recorded as > 1000 mg/dL. Moreover, in series [11] (uremia patients), the Half life was 36 h. Further, the “Mortality with acute renal failure” value in series [12] (massive mannitol infusion to 4 male adults) is reported as 2/4. Also, the “Onset of acute renal failure after infusion” value in series [12] (massive mannitol infusion, Mean+SD) was 48 ± 22 h.

`O=S(=O)([O-])[O-].[Mg+2]` [magnesium sulfate]: the “Patient outcome, magnesium sulfate (16 gm) group compared to mannitol group” value in series [10] (magnesium sulfate 16 gm a day for five days) is “improved”. The “Effectiveness of magnesium sulfate (16 gm) versus magnesium sulfate (8 gm) plus mannitol” value in series [10] (patients with cerebrovascular accidents) is given as “equally effective”. Besides, the “Incidence of side effects, magnesium sulfate (16 gm) alone compared to magnesium sulfate (8 gm) plus mannitol” value in series [13] (five days treatment) was “greater; also recorded: higher”. Also, in series [13] (setting [16]), the Constipation was 4, the Facial flushing worked out at 8, the Heart block was found to be 3 and the Hypotension is recorded as 3. In series [13] (setting [16]), this compound came in with a Nausea of 5, a Paradoxical bradycardia of 3 and a Respiratory distress of 2. Moreover, in series [14], the Mortality versus placebo result is listed as “slightly higher” and the Primary outcome was “not improved”. In addition, in series [15] (at 3 months), the “Patients with good functional outcome” value is listed as 60%. Further, the “Patient status on hospital arrival rated improved” value in series [15] (rated by paramedics, 10 mmol bolus and 64 mmol infusion over 24 hrs) was 20%. Further, in [15] (rated by paramedics), the “Patient status on hospital arrival rated unchanged” value is 75% and the “Patient status on hospital arrival rated worsened” value was 5%.

These data come from US20110318431A1, “Pharmaceutical Compositions and Methods of Treating Neurological Insults” (ENDOGENX, priority 2008, published 2011).
